This is an account of results in US10030016B2 (Sunesis Pharmaceuticals, Inc., priority 2009, dated 2018).

One assay concerns the target PDK1 (Homo sapiens (Human), UniProt O15530). The assay is described as follows: PDK1 kinase assay (coupled PDK1/AKT/FAM-crosstide assay, IMAP fluorescence polarization). Format: biochemical. In outline: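 GST-tagged human PDK1 (aa 51-359, 0.75 nM) from insect cells activated unphosphorylated GST-AKT2 (aa 140-467–PIFtide fusion, 10 nM), which phosphorylated 100 nM FAM-crosstide; 40 μM ATP, pH 7.2 Tris/MgCl2, 30 min at 25° C. IMAP fluorescence polarization read-out; ΔmP versus compound concentration fitted with a 4-parameter curve.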

Assay [1] concerns phospho-akt (Thr308) in PC-3 cells. The assay is described as follows: Inhibition of phospho-akt (Thr308) in PC-3 cells, MSD phospho-akt 308 ELISA kit. Format: cell-based. The following applies: 2 hours, no serum, read-out: EC50. The method, boiled down:
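Serum-free 2 h compound exposure of overnight-seeded PC-3 cells, threefold dilution series; lysates analysed on blocked MSD plates (3% BSA) for Thr308-phosphorylated Akt, normalised between DMSO and 5 μM wortmannin wells.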

Setting [2] is: Homo sapiens, inhibition of P308 Akt in PC-3 cells using MSD.
Setting [3] is: inhibition of phospo-PDK1 in vitro.
The mark [4] stands for this setting: Homo sapiens, inhibition of P308 Akt in PC-3 cells, MSD.

Structures can show the parent of a compound that is named as a salt. Where two headings read alike, the source gives them in different places.

Sequence of PDK1 (O15530 51-359): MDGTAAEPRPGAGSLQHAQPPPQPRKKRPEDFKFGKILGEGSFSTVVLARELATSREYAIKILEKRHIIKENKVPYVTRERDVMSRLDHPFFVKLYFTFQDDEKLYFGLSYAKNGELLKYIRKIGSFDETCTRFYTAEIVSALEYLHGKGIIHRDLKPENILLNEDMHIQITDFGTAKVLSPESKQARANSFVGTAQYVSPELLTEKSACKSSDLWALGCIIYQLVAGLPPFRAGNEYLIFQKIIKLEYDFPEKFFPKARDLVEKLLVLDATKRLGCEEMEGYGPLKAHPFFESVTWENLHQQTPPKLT

Consider `C[C@H](NC(=O)c1cc(C#N)cnc1NCc1ccc(-c2cnc(N)c(CCCO)n2)cc1)c1ccc(F)cc1` [Example 91, 2-{4-[5-Amino-6-(3-hydroxy-propyl)-pyrazin-2-yl]-benzyl-amino}-5-cyano-N-[(S)-1-(4-fluoro-phenyl)-ethyl]-nicotinamide], for which the IC50 at PDK1 (inhibition of PDK1 in vitro) was less than 100 nM. In addition, the EC50 in assay [1] (setting [2]) is less than 1000 nM.

On to `N#Cc1cnc(N[C@@H](COc2ccc3[nH]c(=O)[nH]c3c2)c2ccccc2)c(C(=O)NCc2ccc(F)c(F)c2)n1` [Example 16.11, (R)-6-cyano-N-(3,4-difluorobenzyl)-3-(2-(2-oxo-2,3-dihydro-1H-benzo[d]imidazol-5-yloxy)-1-phenylethylamino) pyrazine-2-carboxamide], for which the IC50 at PDK1 (setting [3]) was less than 100 nM. In addition, the EC50 in assay [1] (setting [4]) was less than 1000 nM.

Take `CC(C)Oc1cc(CNc2ncccc2C(=O)NCc2cccc(F)c2)cc(-c2c[nH]c3ncc(C(=O)NC4CC4)cc23)c1` [Example 4.1.4, N-cyclopropyl-3-{3-[({3-[(3-fluorobenzyl)carbamoyl]pyridin-2-yl}amino)methyl]-5-(propan-2-yloxy)phenyl}-1H-pyrrolo [2,3-b]pyridine-5-carboxamide]: on PDK1 (setting [3]), the IC50 is less than 100 nM. Moreover, the EC50 in assay [1] (setting [4]) lay in the range of 1000 to 10000 nM.

Regarding `Nc1ncnc2ccc(-c3ccc(CNc4nccnc4C(=O)NCc4ccc(F)cc4F)s3)cc12` [Example 3.75, 3-({[5-(4-aminoquinazolin-6-yl)thiophen-2-yl]methyl}amino)-N-(2,4-difluorobenzyl)pyrazine-2-carboxamide (TFA salt)], at PDK1 (setting [3]), the IC50 is less than 100 nM. In assay [1] (setting [4]), the EC50 was greater than 10000 nM.

On PDK1 (setting [3]), `CNc1ncnc2ccc(-c3ccc(CNc4ncccc4C(=O)NCc4ccc(F)c(F)c4)s3)cc12` [Example 4.24, N-(3,4-difluorobenzyl)-2-(((5-(4-(methylamino)quinazolin-6-yl)thiophen-2-yl)methyl)amino)nicotinamide] displayed an IC50 of less than 100 nM. The EC50 in assay [1] (setting [4]) lay in the range of 1000 to 10000 nM.

Regarding `C[C@H](NC(=O)c1cc(C(F)(F)F)cnc1NCc1ccc(-c2cc3c(N)ncnc3cn2)s1)c1ccc(F)cc1` [Example 8.12.7, 2-({[5-(4-aminopyrido [3,4-d]pyrimidin-6-yl)thiophen-2-yl]methyl}amino)-N-[(1S)-1-(4-fluorophenyl)ethyl]-5-(trifluoromethyl) pyridine-3-carboxamide], the IC50 on PDK1 (setting [3]) lay in the range of 100 to 1000 nM. For the same compound, the EC50 in assay [1] (setting [4]) was less than 1000 nM.

As to `CN(C)CCNC(=O)c1cnc(NCc2ccc(-c3ccc4ncnc(N)c4c3)s2)c(C(=O)NCc2ccc(F)c(F)c2)c1` [Example 7.24.2, 2-({[5-(4-aminoquinazolin-6-yl)thiophen-2-yl]methyl}amino)-N^3-(3,4-difluorobenzyl)-N^5-[2-(dimethylamino)ethyl] pyridine-3,5-dicarboxamide], the IC50 at PDK1 (setting [3]) was in the range of 100 to 1000 nM. Also, the EC50 in assay [1] (Homo sapiens, PC-3, 2 h, inhibition of P308 Akt in PC-3 cells, MSD) was in the range of 1000 to 10000 nM.

`C[C@H](NC(=O)c1nccnc1NCc1ccc(-c2cnc3[nH]c(=O)[nH]c3c2)cc1)c1ccc(F)cc1` [Example 357, (S)-N-(1-(4-fluorophenyl)ethyl)-3-(4-(2-oxo-2,3-dihydro-1H-imidazo[4,5-b]pyridin-6-yl)benzylamino) pyrazine-2-carboxamide] gave an IC50 against PDK1 (inhibition of PDK1 in vitro) of less than 100 nM. Moreover, in assay [1] (setting [2]), the EC50 was less than 1000 nM.

In turn, `CC(C)Oc1cc(CNc2ncccc2C(=O)NC2CC2)cc(-c2c[nH]c3ncc(C(=O)NC4CC4)cc23)c1` [Example 4.1.7, N-cyclopropyl-3-[3-({[3-(cyclopropylcarbamoyl)pyridin-2-yl]amino}methyl)-5-(propan-2-yloxy)phenyl]-1H-pyrrolo[2,3-b] pyridine-5-carboxamide] had an IC50 against PDK1 (setting [3]) of 1000 to 5000 nM. Also, the EC50 in assay [1] (setting [4]) was 1000 to 10000 nM.

The compound `CC(C)Nc1ncnc2ccc(-c3ccc(CNc4ncccc4C(=O)NCc4ccc(F)c(F)c4)s3)cc12` [Example 4.12, N-(3,4-difluorobenzyl)-2-(((5-(4-(isopropylamino)quinazolin-6-yl)thiophen-2-yl)methyl)amino)nicotinamide] returned an IC50 against PDK1 (setting [3]) of less than 100 nM. Further, the EC50 in assay [1] (setting [4]) is 1000 to 10000 nM.

As to `Nc1n[nH]c2ncc(-c3ccc(CNc4ncc(C(F)(F)F)cc4C(=O)N[C@H](CO)c4ccc(Br)cc4)cc3)cc12` [Example 437, (S)-2-(4-(3-amino-1H-pyrazolo[3,4-b]pyridin-5-yl)benzylamino)-N-(1-(4-bromophenyl) 2-hydroxyethyl)-5-(trifluoromethyl)nicotinamide], the IC50 on PDK1 (inhibition of PDK1 in vitro) lay within 1000 to 5000 nM. Also, the EC50 in assay [1] (setting [2]) was greater than 10000 nM.

`C[C@H](NC(=O)c1cccnc1NCc1ccc(-c2cnc3[nH]ncc3c2)cc1)c1ccc(F)cc1` [Example 392, N-[(S)-1-(4-Fluoro-phenyl)-ethyl]-2-[4-(1H-pyrazolo [3,4-b]pyridin-5-yl)-benzylamino]-nicotinamide] displayed a concentration for half-maximal inhibition (IC50) at PDK1 (inhibition of PDK1 in vitro) of less than 100 nM. In assay [1] (setting [2]), the EC50 lay within 1000 to 10000 nM.

`C[C@H](NC(=O)c1cc(C#N)cnc1N[C@@H](COc1ccc2[nH]c(=O)[nH]c2c1)c1ccccc1)c1ccc(F)cc1` [Example 16.10]: the IC50 against PDK1 (setting [3]) lay in the range of 100 to 1000 nM. For the same compound, in assay [1] (setting [4]), the EC50 was less than 1000 nM.

On PDK1 (inhibition of PDK1 in vitro), `Nc1n[nH]c2ncc(-c3ccc(CNc4ncc(C(F)(F)F)cc4C(=O)NCC4CCCO4)cc3)cc12` (centres unmarked) [Example 265, 2-(4-(3-amino-1H-pyrazolo [3,4-b]pyridin-5-yl)benzylamino)-N-((tetrahydrofuran-2-yl)methyl)-5-(trifluoromethyl) nicotinamide] returned an IC50 of less than 100 nM. For the same compound, in assay [1] (Homo sapiens, PC-3, 2 h, inhibition of P308 Akt in PC-3 cells using MSD), the EC50 lay in the range of 1000 to 10000 nM.

For `C[C@H](NC(=O)c1nccnc1NCc1ccc(-c2ccc(N)nc2)cc1)c1ccc(F)cc1` [Example 371, (S)-3-(4-(6-aminopyridin-3-yl)benzylamino)-N-(1-(4-fluorophenyl)ethyl)pyrazine-2-carboxamide], the IC50 against PDK1 (inhibition of PDK1 in vitro) is less than 100 nM. For the same compound, the EC50 in assay [1] (setting [2]) is greater than 10000 nM.

On to `COc1cc(-c2ccc(CNc3ncc(C#N)cc3C(=O)N[C@@H](C)c3ccc(F)cc3)cc2)cnc1N` [Example 133, (S)-2-(4-(6-amino-5-methoxypyridin-3-yl)benzylamino)-5-cyano-N-(1-(4-fluorophenyl)ethyl)nicotinamide], for which the IC50 on PDK1 (inhibition of PDK1 in vitro) is less than 100 nM. In addition, the EC50 in assay [1] (setting [2]) was less than 1000 nM.

The compound `C[C@H](NC(=O)c1cc(C#N)cnc1NCc1ccc(-c2cnc3[nH]ncc3c2)cc1)c1ccc(F)cc1` [Example 2.36, 5-Cyano-N-[(S)-1-(4-fluoro-phenyl)-ethyl]-2-[4-(1H-pyrazolo[3,4-]pyridin-5-yl)-benzylamino]-nicotinamide] returned an IC50 against PDK1 (setting [3]) of less than 100 nM. For the same compound, the EC50 in assay [1] (inhibition of P308 Akt in PC-3 cells, MSD) is less than 1000 nM.

`N#Cc1cnc(NCc2ccc(-c3cnc4[nH]c(=O)[nH]c4c3)cc2)c(C(=O)NCc2ccc(F)c(F)c2)n1` [Example 364, 6-cyano-N-(3,4-difluorobenzyl)-3-(4-(2-oxo-2,3-dihydro-1H-imidazo[4,5-b]pyridin-6-yl)benzylamino)pyrazine-2-carboxamide] registered an IC50 against PDK1 (inhibition of PDK1 in vitro) of less than 100 nM. For the same compound, in assay [1] (setting [2]), the EC50 is less than 1000 nM.

For the compound `C[C@H](NC(=O)c1nc(C#N)cnc1NCc1ccc(-c2cnc3[nH]ncc3c2)cc1)c1ccc(F)c(F)c1` [Example 390, 6-Cyano-3-[4-(1H-pyrazolo [3,4-b]pyridin-5-yl)-benzylamino]-pyrazine-2-carboxylic acid [(S)-1-(3,4-difluoro-phenyl)-ethyl]-amide], the IC50 on PDK1 (inhibition of PDK1 in vitro) is less than 100 nM. In assay [1] (setting [2]), the EC50 is less than 1000 nM.

On PDK1 (inhibition of PDK1 in vitro), `C[C@H](NC(=O)c1nc(C#N)cnc1NCc1ccc(-c2ccn3ncnc(N)c23)cc1)c1ccc(F)c(F)c1` [Example 175, 3-[4-(4-Amino-pyrrolo [2,1-f][1,2,4]triazin-5-yl)-benzylamino]-6-cyano-pyrazine-2-carboxylic acid [(S)-1-(3,4-difluoro-phenyl)-ethyl]-amide] yielded a half-inhibitory concentration (IC50) of less than 100 nM. The EC50 in assay [1] (setting [2]) is less than 1000 nM.

As to `Cn1cnc2cnc3ccc(-c4ccc(CNc5ncc(C#N)nc5C(=O)NCc5ccc(F)cc5)s4)cc3c21` [Example 3.82, 6-cyano-N-(4-fluorobenzyl)-3-(((5-(1-methyl-1H-imidazo [4,5-c]quinolin-8-yl)thiophen-2-yl)methyl)amino)pyrazine-2-carboxamide (TFA salt)], at PDK1 (setting [3]), the IC50 was less than 100 nM. Further, the EC50 in assay [1] (setting [4]) is less than 1000 nM.

At PDK1 (setting [3]), `Nc1n[nH]c2ncc(-c3ccc(CNc4ncc(C(F)(F)F)cc4C(=O)N4CCc5cc(F)ccc54)cc3)cc12` [Example 30, (2-(4-(3-amino-1H-pyrazolo[3,4-b]pyridin-5-yl)benzylamino)-5-(trifluoromethyl)pyridin-3-yl)(5-fluoroindolin-1-yl)methanone] yielded an IC50 of less than 100 nM. Further, the EC50 in assay [1] (setting [4]) was less than 1000 nM.

As for `CNC(=O)c1cc(S(=O)(=O)N2CCCCC2)cnc1NCc1ccc(-c2ccc3ncnc(N)c3c2)s1` [Example 8.6.19], the IC50 against PDK1 (setting [3]) is greater than 5000 nM. In addition, the EC50 in assay [1] (setting [4]) is greater than 10000 nM.

At PDK1 (setting [3]), `CS(=O)(=O)c1cnc(NCc2ccc(-c3ccc4ncnc(N)c4c3)s2)c(C(=O)NCc2ccc(F)c(F)c2)c1` [Example 8.7.8] had an IC50 of 100 to 1000 nM. The EC50 in assay [1] (setting [4]) is less than 1000 nM.

The compound `N#Cc1cnc(NCc2ccc(-c3cnc4[nH]nc(N)c4c3)cc2)c(C(=O)NCc2cncc(F)c2)n1` [Example 26, 3-(4-(3-amino-1H-pyrazolo[3,4-b]pyridin-5-yl)benzylamino)-6-cyano-N-((5-fluoropyridin-3-yl)methyl)pyrazine-2-carboxamide] registered an IC50 against PDK1 (setting [3]) of less than 100 nM. Moreover, the EC50 in assay [1] (setting [4]) was less than 1000 nM.
